Results reported in patent publication US20230131025A1, “QUINOLYL PHOSPHINE OXIDE COMPOUND, AND COMPOSITION AND APPLICATION THEREOF” (Betta Pharmaceuticals Co., Ltd., priority 2020, published 2023).

What was measured:
EGFR WT = EGFR WT (Homo sapiens, UniProt P00533); assay: Kinase inhibition assay (mobility shift); format: biochemical
Description: (§1) Experiment 1 Kinase Inhibition Assay Mobility shift assays were performed to determine inhibitory activity of compounds against EGFR^Δ19del/T790M/C797S, EGFR WT and IGF1R kinases. The enzymatic reaction scheme is as follows:
(§2) 1. Preparing 1*Kinase Buffer as follows:
(§3) 2. Preparing compound concentration gradient: the initial concentration of the compound tested in the assay was 3,000 nM or 100 nM, which is then diluted to be 100-fold final concentration in 100% DMSO in a 384-source plate. Compounds in 10 concentrations were diluted in a 3-fold gradient with Precision. 250 nL of compound in 100-fold final concentration was transferred to OptiPlate-384F plate by using a dispenser named Echo 550.
(§4) 3. Preparing kinase solution at 2.5-fold the final concentration with 1×kinase buffer.
(§5) 4. Adding 10 μL of kinase solution at 2.5-fold the final concentration to compound wells and positive control wells respectively; and adding 10 μL of 1×kinase buffer to negative control wells.
(§6) 5. Centrifuging the wells at 1,000 rpm for 30 seconds, mixing the reaction plate well by shaking and incubating it at room temperature for 10 minutes.
(§7) 6. Preparing a mixed solution of ATP and kinase substrate at 5-fold/3-fold the final concentration with 1×Kinase buffer, respectively.
(§8) 7. Initiating the reaction by adding 15 μL of the mixed solution of ATP and kinase substrate at 5-fold/3-fold the final concentration.
(§9) 8. Centrifuging the 384-well plate at 1,000 rpm for 30 seconds, mixing the reaction plate well by shaking and incubating it at room temperature for a corresponding time.
(§10) 9. Adding 30 μL of assay stop solution to stop the kinase reaction, and centrifuging the plate at 1,000 rpm for 30 seconds and mixing it well by shaking.
(§11) 10. Reading the conversion rate with Caliper EZ Reader.
(§12) [formula] • wherein, “Conversion % sample” is the conversion rate reading of the sample;
(§13) “Conversion %_min” is the mean value of the negative control wells, representing the conversion rate readings of the well without enzymatic activity; “Conversion %_max” is the mean value of the positive control wells, representing the conversion rate readings of the wells without compound inhibition. • Dose-response curve is plotted with the logarithmic concentration on the X-axis and percent inhibition on the Y-axis. The fitting of the dose-response curve is made with the module “log(inhibitor) vs. response—Variable slope” of the analysis software GraphPad Prism 5, so that the IC50 value of each compound on enzymatic activity is obtained. • The calculation formula is: Y=Bottom+(Top−Bottom)/(1+10^((Log IC50−X)*HillSlope)).

EGFR Δ19del/T790M/C797S = EGFR Δ19del/T790M/C797S (Homo sapiens, UniProt P00533, T790M/C797S, form not given); assay: Kinase inhibition assay (mobility shift); format: biochemical
EGFR Δ19del/T790M/C797S, sequence (P00533 with tags, fused parts or gaps DEL746-750/T790M/C797S, form open): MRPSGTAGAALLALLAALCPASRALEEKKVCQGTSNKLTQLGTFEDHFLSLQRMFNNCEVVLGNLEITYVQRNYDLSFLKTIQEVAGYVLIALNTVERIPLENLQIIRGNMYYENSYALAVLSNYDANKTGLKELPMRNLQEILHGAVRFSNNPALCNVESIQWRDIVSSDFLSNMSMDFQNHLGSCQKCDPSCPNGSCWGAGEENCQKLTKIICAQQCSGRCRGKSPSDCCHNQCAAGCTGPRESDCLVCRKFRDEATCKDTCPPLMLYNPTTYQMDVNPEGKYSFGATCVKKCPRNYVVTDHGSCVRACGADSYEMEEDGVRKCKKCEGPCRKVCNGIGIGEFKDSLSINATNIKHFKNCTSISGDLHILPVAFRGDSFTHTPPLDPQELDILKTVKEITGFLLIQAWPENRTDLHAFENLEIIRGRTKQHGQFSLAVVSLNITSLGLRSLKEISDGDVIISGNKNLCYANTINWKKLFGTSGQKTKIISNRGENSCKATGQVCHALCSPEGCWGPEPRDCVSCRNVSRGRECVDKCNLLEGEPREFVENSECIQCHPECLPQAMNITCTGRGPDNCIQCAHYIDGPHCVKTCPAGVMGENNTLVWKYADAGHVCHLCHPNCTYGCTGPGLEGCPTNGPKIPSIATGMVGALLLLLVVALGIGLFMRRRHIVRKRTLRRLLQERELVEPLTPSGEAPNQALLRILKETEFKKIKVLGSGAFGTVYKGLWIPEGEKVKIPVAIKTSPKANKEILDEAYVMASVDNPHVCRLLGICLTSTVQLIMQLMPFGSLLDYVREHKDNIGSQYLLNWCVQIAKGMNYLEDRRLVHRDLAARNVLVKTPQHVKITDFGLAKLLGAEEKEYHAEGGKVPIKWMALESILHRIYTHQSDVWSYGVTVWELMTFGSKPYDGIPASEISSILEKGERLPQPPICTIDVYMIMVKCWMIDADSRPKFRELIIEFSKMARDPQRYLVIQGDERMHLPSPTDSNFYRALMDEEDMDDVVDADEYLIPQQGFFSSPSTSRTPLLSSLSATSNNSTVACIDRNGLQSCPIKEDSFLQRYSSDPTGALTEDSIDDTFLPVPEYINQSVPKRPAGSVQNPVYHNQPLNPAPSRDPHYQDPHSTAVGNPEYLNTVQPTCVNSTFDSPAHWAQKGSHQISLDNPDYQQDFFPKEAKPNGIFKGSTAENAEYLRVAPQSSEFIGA
Description: as §1, §2, §3, §4, §5, §6, §7, §8, §9, §10, §11, §12, §13

IGF1R = IGF1R (Homo sapiens, UniProt P08069); assay: Kinase inhibition assay (mobility shift); format: biochemical
IGF1R, sequence (P08069 31-1367, species assumed): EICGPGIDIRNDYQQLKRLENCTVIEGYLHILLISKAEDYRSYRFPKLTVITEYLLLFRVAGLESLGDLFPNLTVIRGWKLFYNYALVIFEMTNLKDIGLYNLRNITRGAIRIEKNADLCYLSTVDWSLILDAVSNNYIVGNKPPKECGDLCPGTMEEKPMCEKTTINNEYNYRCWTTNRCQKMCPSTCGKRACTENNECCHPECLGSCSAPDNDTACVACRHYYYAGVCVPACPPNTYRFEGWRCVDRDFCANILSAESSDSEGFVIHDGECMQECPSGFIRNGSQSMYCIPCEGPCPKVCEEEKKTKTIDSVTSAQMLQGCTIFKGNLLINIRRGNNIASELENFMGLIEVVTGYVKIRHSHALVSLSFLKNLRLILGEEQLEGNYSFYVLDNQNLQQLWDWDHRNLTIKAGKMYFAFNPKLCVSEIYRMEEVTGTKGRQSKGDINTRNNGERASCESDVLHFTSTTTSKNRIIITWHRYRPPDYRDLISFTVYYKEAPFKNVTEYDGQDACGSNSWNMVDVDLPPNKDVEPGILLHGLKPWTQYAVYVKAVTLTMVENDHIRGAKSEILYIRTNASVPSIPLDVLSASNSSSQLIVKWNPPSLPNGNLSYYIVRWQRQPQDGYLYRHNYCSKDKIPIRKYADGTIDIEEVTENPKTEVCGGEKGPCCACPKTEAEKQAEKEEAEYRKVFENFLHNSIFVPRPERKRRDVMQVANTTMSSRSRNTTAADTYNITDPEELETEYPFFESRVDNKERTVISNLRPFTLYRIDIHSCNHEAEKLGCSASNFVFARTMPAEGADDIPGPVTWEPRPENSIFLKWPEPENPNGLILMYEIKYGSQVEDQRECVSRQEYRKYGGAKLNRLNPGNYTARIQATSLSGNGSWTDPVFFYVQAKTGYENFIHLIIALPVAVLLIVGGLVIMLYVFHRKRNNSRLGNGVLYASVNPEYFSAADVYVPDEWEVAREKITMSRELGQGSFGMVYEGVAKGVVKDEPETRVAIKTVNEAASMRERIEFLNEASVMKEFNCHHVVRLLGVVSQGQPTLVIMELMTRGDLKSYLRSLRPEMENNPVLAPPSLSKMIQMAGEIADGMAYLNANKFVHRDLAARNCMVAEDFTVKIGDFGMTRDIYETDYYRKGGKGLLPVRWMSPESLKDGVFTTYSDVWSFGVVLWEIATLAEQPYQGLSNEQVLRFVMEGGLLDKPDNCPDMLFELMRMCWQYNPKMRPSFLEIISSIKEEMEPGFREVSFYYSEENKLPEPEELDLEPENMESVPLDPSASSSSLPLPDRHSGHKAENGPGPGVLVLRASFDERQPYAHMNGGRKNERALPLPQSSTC
Description: as §1, §2, §3, §4, §5, §6, §7, §8, §9, §10, §11, §12, §13

Ba/F3 EGFR WT = Ba/F3 EGFR WT (Homo sapiens, UniProt P00533); assay: Cell proliferation experiment (CellTiter Glo, 72 hours); format: cell-based; conditions: read-out: BaF3 EGFR WT IC50
Ba/F3 EGFR WT, sequence (P00533 whole entry, change not shown): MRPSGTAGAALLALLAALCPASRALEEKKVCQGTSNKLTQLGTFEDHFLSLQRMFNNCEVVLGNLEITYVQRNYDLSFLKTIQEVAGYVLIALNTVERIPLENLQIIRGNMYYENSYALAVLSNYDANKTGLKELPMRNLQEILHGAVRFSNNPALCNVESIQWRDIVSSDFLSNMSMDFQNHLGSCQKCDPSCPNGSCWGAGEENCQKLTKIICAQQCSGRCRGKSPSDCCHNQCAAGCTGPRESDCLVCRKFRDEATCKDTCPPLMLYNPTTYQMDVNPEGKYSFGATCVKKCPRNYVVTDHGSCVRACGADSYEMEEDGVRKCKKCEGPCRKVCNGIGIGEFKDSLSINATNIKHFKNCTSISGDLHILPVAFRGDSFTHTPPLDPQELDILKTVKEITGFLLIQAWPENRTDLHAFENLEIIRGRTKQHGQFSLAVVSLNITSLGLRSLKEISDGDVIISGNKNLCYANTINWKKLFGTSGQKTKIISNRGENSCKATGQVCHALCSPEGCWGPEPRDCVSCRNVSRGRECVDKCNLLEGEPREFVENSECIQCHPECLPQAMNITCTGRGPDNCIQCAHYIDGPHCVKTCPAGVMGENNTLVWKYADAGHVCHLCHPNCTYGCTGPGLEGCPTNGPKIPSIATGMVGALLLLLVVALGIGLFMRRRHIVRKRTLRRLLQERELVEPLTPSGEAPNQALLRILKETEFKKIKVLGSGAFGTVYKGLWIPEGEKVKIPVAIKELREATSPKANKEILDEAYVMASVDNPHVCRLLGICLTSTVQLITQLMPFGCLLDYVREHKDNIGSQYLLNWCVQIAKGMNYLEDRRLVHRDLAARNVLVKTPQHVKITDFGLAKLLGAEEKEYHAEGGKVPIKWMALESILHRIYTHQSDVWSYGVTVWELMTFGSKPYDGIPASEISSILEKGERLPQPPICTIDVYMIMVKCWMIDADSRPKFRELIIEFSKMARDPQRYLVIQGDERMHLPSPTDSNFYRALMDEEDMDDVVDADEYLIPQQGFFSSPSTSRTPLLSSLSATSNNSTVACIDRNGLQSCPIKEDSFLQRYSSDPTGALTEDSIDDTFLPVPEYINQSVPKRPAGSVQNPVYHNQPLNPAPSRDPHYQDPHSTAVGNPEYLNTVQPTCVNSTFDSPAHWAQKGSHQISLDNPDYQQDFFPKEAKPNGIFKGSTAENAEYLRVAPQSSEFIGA
Description: (§14) Experiment 2 Cell Proliferation Experiment
(§15) Suspension cells: Ba/F3 cells with stable overexpression of Δ19del/T790M/C797S mutant gene, named Ba/F3-Δ19del/T790M/C797S; Ba/F3 cells with overexpression of EGFR WT, named Ba/F3 EGFR WT.
(§16) RPMI 1640 with 10% FBS and 1% Penicillin-Streptomycin, or DMEM with 10% FBS and 1% Penicillin-Streptomycin.
(§17) a) Diluting compounds being tested (20 mM stock solutions), as an initial concentration, to 10 mM with 100% DMSO, followed by diluting compounds serially in a 3-fold gradient such that each compound is diluted into 12 concentrations (Cat #P-05525, Labcyte).
(§18) b) Diluting the above compound solutions for 100-fold with culture medium to prepare 10-fold working solution.
(§19) b) Seeding cells into 96-well cell culture plate at a density of 2000 or 3000 cells/well, with 135 μL/well.
(§20) a) Adding the compound prepared in step 2 to the cell plate at 15 μL per well, resulting in a final maximum concentration of 10000 nM or 1111 nM. The compounds is diluted serially in a 3-fold gradient such that each compound is diluted into 9 concentrations, wherein the final concentration of DMSO is 0.1%. Blank control wells are added with medium (0.1% DMSO).
(§21) b) Re-incubating the cells in an incubator for 72 hours. 5. Detection
(§22) a) Adding 50 μL of CTG reagent (CellTiter Glo kit, promega, Cat #G7573) to the 96-well cell culture plate.
(§23) b) Shaking the plate for 2 minutes and reacting at room temperature for 10 minutes.
(§24) c) Reading the luminescence signal value (Lum) using PerkinElmer reader.
(§25) The cell survival inhibition rate of each well was calculated. The data was analyzed by GraphPad Prism 6.0 software. The dose-response curve was obtained by fitting the data with a nonlinear regression equation. The IC50 of each compound was calculated as follows:
(§26) Cell survival inhibition rate (%)=(1−(Lumcompound tested−Lummedium control)/(Lumcell control−Lummedium control))×100%
(§27) Y=Min+(Max−Min)/(1+10^((Log IC50−X)*Slope));
(§28) X: logarithm of compound concentration. Y: cell survival inhibition rate.

Ba/F3-Δ19del/T790M/C797S = Ba/F3-Δ19del/T790M/C797S (Homo sapiens, UniProt P00533, T790M/C797S, cells depend on it, form not given); assay: as above; format: cell-based; conditions: read-out: Ba/F3/EGFR Δ19del/T790M/C797S IC50
Ba/F3-Δ19del/T790M/C797S, sequence (P00533 with tags, fused parts or gaps DEL746-750/T790M/C797S, form open): as the sequence (P00533 with tags, fused parts or gaps DEL746-750/T790M/C797S, form open) above
Description: as §14, §15, §16, §17, §18, §19, §20, §21, §22, §23, §24, §25, §26, §27, §28

[1] = tested on: human epidermal cancer cells A431 carrying EGFR WT; assay: as above; format: cell-based; conditions: Homo sapiens, A-431
Description: as §14
Adherent cells: human epidermal cancer cells A431 carrying EGFR WT.
as §16, §17, §18, §19, §20, §21, §22, §23, §24, §25, §26, §27, §28

COc1cc(N2CCOCC2)c(C#N)cc1Nc1ncc(Br)c(Nc2ccc3nc(C4CC4)ccc3c2P(C)(C)=O)n1 [Compound J-002, 5-((5-Bromo-4-((2-cyclopropyl-5-(dimethylphosphineoxide)quinolin-6-yl)amino)pyrimidin-2-yl)amino)-4-methoxy-2-morpholinebenzonitrile]
IC50 (EGFR WT): 62.8 nM | IC50 (EGFR Δ19del/T790M/C797S): 0.4 nM | IC50 (IGF1R): 720 nM

COc1cc(Nc2ncc(Br)c(Nc3ccc4nc(C5CC5)ccc4c3P(C)(C)=O)n2)c(C2CC2)cc1N1CCOCC1 [Compound J-004, (6-((5-Bromo-2-((2-cyclopropyl-5-methoxy-4-morpholinylphenyl)amino)pyrimidin-4-yl)amino)-2-cyclopropylquinoline-5-yl)dimethylphosphine oxide]
IC50 (EGFR WT): 283 nM | IC50 (EGFR Δ19del/T790M/C797S): 0.7 nM | IC50 (IGF1R): 380 nM

COc1cc(Nc2ncc(Br)c(Nc3ccc4nc(C5CC5)ccc4c3P(C)(C)=O)n2)cc(C)c1N1CCOCC1 [Compound J-006, (6-((5-Bromo-2-((3-methoxy-5-methyl-4-morpholinylphenyl)amino)pyrimidin-4-yl)amino)-2-cyclopropylquinoline-5-yl)dimethylphosphine oxide]
IC50 (EGFR WT): 714 nM | IC50 (EGFR Δ19del/T790M/C797S): 3.5 nM | IC50 (IGF1R): 437 nM

CCc1cc(Nc2ncc(Br)c(Nc3ccc4nc(-c5cnn(C)c5)ccc4c3P(C)(C)=O)n2)c(OC)cc1N1CCC(N2CCN(C)CC2)CC1 [Compound J-017, (6-((5-Bromo-2-((5-ethyl-2-methoxy-4-(4-(4-methylpiperazin-1-yl)piperidin-1-yl)phenyl)amino)pyrimidin-4-yl)amino)-2(1-methyl-1H-pyrazol-4-yl)quinolin-5-yl)dimethylphosphine oxide]
IC50 (EGFR WT): 18.4 nM | IC50 (EGFR Δ19del/T790M/C797S): 0.3 nM | IC50 (IGF1R): 246 nM

COc1cc(N2CCN(C3CCCC3)CC2)c(C)cc1Nc1ncc(Br)c(Nc2ccc3nc(C4CC4)ccc3c2P(C)(C)=O)n1 [Compound J-037, (6-((5-Bromo-2-((4-(4-cyclopentylpiperazin-1-yl)-2-methoxy-5-methylphenyl)amino)pyrimidin-4-yl)amino)-2-cyclopropylquinolin-5-yl)dimethylphosphine oxide]
IC50 (EGFR WT): 138 nM | IC50 (IGF1R): 210 nM

COc1cc(N2CCN(c3cnccn3)CC2)c(-c2cnn(C)c2)cc1Nc1ncc(Br)c(Nc2ccc3nc(C4CC4)ccc3c2P(C)(C)=O)n1 [Compound J-058, (6-((5-Bromo-2-((2-methoxy-5-(1-methyl-1H-pyrazol-4-yl)-4-(4-(pyrazin-2-yl)piperazin-1-yl)phenyl)amino)pyrimidin-4-yl)amino)-2-cyclopropylquinolin-5-yl)dimethylphosphine oxide]
GI50 (Ba/F3 EGFR WT): 117 nM | GI50 (Ba/F3-Δ19del/T790M/C797S): 5.8 nM | IC50 [1]: 649 nM

COc1cc(N2CCC(N3CCOCC3)CC2)c(-c2cnn(C)c2)cc1Nc1ncc(Br)c(Nc2ccc3nc(C4CC4)ccc3c2P(C)(C)=O)n1 [Compound J-059, (6-((5-Bromo-2-((2-methoxy-5-(1-methyl-1H-pyrazol-4-yl)-4-(4-morpholinopiperidine-1-yl)phenyl)amino)pyrimidin-4-yl)amino)-2-cyclopropylquinolin-5-yl)dimethylphosphine oxide]
GI50 (Ba/F3 EGFR WT): 10.6 nM | GI50 (Ba/F3-Δ19del/T790M/C797S): 0.4 nM | IC50 [1]: 264 nM

COc1cc(N2CCN(c3ccncn3)CC2)c(-c2cnn(C)c2)cc1Nc1ncc(Br)c(Nc2ccc3nc(C4CC4)ccc3c2P(C)(C)=O)n1 [Compound J-060, (6-((5-Bromo-2-((2-methoxy-5-(1-methyl-1H-pyrazol-4-yl)-4-(4-(pyrimidin-4-yl)piperazin-1-yl)phenyl)amino)pyrimidin-4-yl)amino)-2-cyclopropylquinolin-5-yl)dimethylphosphine oxide]
GI50 (Ba/F3 EGFR WT): 54 nM | GI50 (Ba/F3-Δ19del/T790M/C797S): 2.3 nM | IC50 [1]: 366 nM

COc1cc(N(C)CCN(C)C)c(-c2cnn(C)c2)cc1Nc1ncc(Br)c(Nc2ccc3nc(C4CC4)ccc3c2P(C)(C)=O)n1 [Compound J-062, (6-((5-Bromo-2-((4-((2-(dimethylamino)ethyl)(methyl)amino)-2-methoxy-5-(1-methyl-1H-pyrazol-4-yl)phenyl)amino)pyrimidin-4-yl)amino)-2-cyclopropylquinolin-5-yl)dimethylphosphine oxide]
GI50 (Ba/F3 EGFR WT): 46.2 nM | GI50 (Ba/F3-Δ19del/T790M/C797S): 1.4 nM | IC50 [1]: 157 nM

COc1cc(N2CCC(N3CCN(C)CC3)CC2)c(-c2ccn(C)c2)cc1Nc1ncc(Br)c(Nc2ccc3nc(C4CC4)ccc3c2P(C)(C)=O)n1 [Compound J-064, (6-((5-Bromo-2-((2-methoxy-5-(1-methyl-1H-pyrrol-3-yl)-4-(4-(4-methylpiperazine-1-yl)piperidin-1-yl)phenyl)amino)pyrimidin-4-yl)amino)-2-cyclopropylquinolin-5-yl)dimethylphosphine oxide]
GI50 (Ba/F3 EGFR WT): 14.6 nM | GI50 (Ba/F3-Δ19del/T790M/C797S): 1.1 nM | IC50 [1]: 128 nM

COc1cc(N2CCC(N3CCN(C)CC3)CC2)c(-c2cnn(C)c2)cc1Nc1ncc(F)c(Nc2ccc3nc(C4CC4)ccc3c2P(C)(C)=O)n1 [Compound J-065]
GI50 (Ba/F3 EGFR WT): 73 nM | GI50 (Ba/F3-Δ19del/T790M/C797S): 13 nM | IC50 [1]: 425 nM

COc1cc(N2CCN(C3CCN(C)CC3)CC2)c(-c2cnn(C)c2)cc1Nc1ncc(Br)c(Nc2ccc3nc(C4CC4)ccc3c2P(C)(C)=O)n1 [Compound J-066, (6-((5-Bromo-2-((2-methoxy-5-(1-methyl-1H-pyrazol-4-yl)-4-(4-(1-methylpiperidine-4-yl)piperazin-1-yl)phenyl)amino)pyrimidin-4-yl)amino)-2-cyclopropylquinolin-5-yl)dimethylphosphine oxide]
GI50 (Ba/F3 EGFR WT): 77.9 nM | GI50 (Ba/F3-Δ19del/T790M/C797S): 4.4 nM | IC50 [1]: 259 nM

COc1cc(N2CCC(N3CCN(C)CC3)CC2)c(-c2cnn(C(F)F)c2)cc1Nc1ncc(Br)c(Nc2ccc3nc(C4CC4)ccc3c2P(C)(C)=O)n1 [Compound J-067, (6-((5-bromo-2-((5-(1-(difluoromethyl)-1H-pyrazol-4-yl)-2-methoxy-4-(4-(4-methylpiperazin-1-yl)piperidin-1-yl)phenyl)amino)pyrimidin-4-yl)amino)-2-cyclopropylquinolin-5-yl)dimethylphosphine oxide]
GI50 (Ba/F3 EGFR WT): 37.3 nM | GI50 (Ba/F3-Δ19del/T790M/C797S): 2.4 nM | IC50 [1]: 632 nM

COc1cc(N2CCC(N3CCN(C)CC3)CC2)c(-c2cnn(C)c2)cc1Nc1ncc(Br)c(Nc2ccc3nc(C4CC4)ccc3c2P(C)(C)=O)n1 [Compound J-068, (6-((5-Bromo-2-((2-methoxy-5-(1-methyl-1H-pyrazol-4-yl)-4-(4-(4-methylpiperazine-1-yl)piperidin-1-yl)phenyl)amino)pyrimidin-4-yl)amino)-2-cyclopropylquinolin-5-yl)dimethylphosphine oxide]
GI50 (Ba/F3 EGFR WT): 33.2 nM | GI50 (Ba/F3-Δ19del/T790M/C797S): 1 nM | IC50 [1]: 201 nM
